Common to all, as to type: cell-based
Assay [1] has as its system Mycobacterium tuberculosis (Mtb-GFP; H37Rv pMSP12::GFP). Nature of the assay: microbe, parasite or virus in culture. The conditions noted are these: 168 h, pH 6.8, read-out: Mtb Cho MITC95, cholesterol carbon source, pH 6.8, 7-day growth, GFP fluorescence, lowest concentration inhibiting 95% of growth.
The subject of assay [2] is mitochondrial protein synthesis in HepG2 cells. In words: Mitochondrial protein synthesis assay (COX-I to SDH-A ratio, In Cell ELISA). The settings on record: 4 days, ratio of COX-I to SDH-A levels, read-out: MPS IC50. The protocol: Mitochondrial Protein Synthesis Assay
Inhibition of mitochondrial protein synthesis was assessed in HepG2 cells by comparing the levels of two subunits of oxidative phosphorylation enzyme complexes, subunit I of Complex IV (COX-I) and the 70 kDa subunit of Complex II (SDH-A). COX-I is mitochondrial DNA encoded and SDH-A is nuclear DNA encoded. HepG2 cells were seeded in 96-well collagen coated plates at 8,000 cells per well and exposed to 2-fold serial dilutions of compounds from 100 μM to 6.25 μM. Microtiter plates were incubated for approximately 5 replication cycles (4 days) prior to assessment of protein levels using a kit as described by the manufacturer (ab110217 MitoBiogenesis In Cell ELISA Kit, Abcam, Cambridge, MA). Inhibition of mitochondrial protein synthesis was expressed as a ratio of COX-1 to SDH-A levels.
In general terms: An ELISA detects its analyte on a solid surface through an enzyme-linked reagent.

The subject of assay [3] is Mycobacterium tuberculosis (Mtb-GFP; H37Rv pMSP12::GFP). In words: microbe, parasite or virus in culture. The conditions noted are these: 168 h, pH 6.8, read-out: Mtb Glu MITC95, glucose carbon source, pH 6.8, 7-day growth, GFP fluorescence, lowest concentration inhibiting 95% of growth.

Broadly, the pIC50 is −log10 of the IC50, conventionally taken in molar units.

SMILES strings stand for the structures. pIC50: −log10 of the molar value. Converted amounts (≈) assume the structure as drawn. Like-named read-outs stand apart in the source and are kept apart here. Some results are limits rather than exact numbers.

As for `CN=S1(=O)CCC(F)(c2c(F)cc(C3=NO[C@@H](Cn4ccnn4)C3)cc2F)CC1` (single isomer, unassigned) [Example 6], the MIC in assay [1] and in assay [3] was 1.56 µM (≈ 0.667 µg/mL) in each case. Further, the pIC50 in assay [2] (Homo sapiens, HepG2, 96 h) was less than 4.00.
Turning to `CN=S1(=O)CCC(F)(c2c(F)cc(C3=NO[C@@H](Cn4ccnn4)C3)cc2F)CC1` (single isomer, unassigned) [Example 7], in assay [2], the pIC50 is less than 4.00.
`CN=S1(=O)CCC(F)(c2c(F)cc(C3=NO[C@@H](CNC(=O)OC)C3)cc2F)CC1` (single isomer, unassigned) [Example 8]: the MIC in assay [1] and in assay [3] was 3.12 µM (≈ 1.35 µg/mL) each time. Besides, in assay [2] (Homo sapiens, HepG2, 96 h), the pIC50 was less than 4.00.
On to `CN=S1(=O)CCC(F)(c2c(F)cc(C3=NO[C@@H](CNC(=O)OC)C3)cc2F)CC1` (single isomer, unassigned) [Example 9], for which the pIC50 in assay [2] was less than 4.00.
Turning to `O=S1(=O)CCC(F)(c2c(F)cc(C3=NO[C@@H](Cn4ccnn4)C3)cc2F)CC1` [Example 1, 4-[2,6-Difluoro-4-[(5R)-5-(triazol-1-ylmethyl)-4,5-dihydroisoxazol-3-yl]phenyl]-4-fluoro-thiane 1,1-dioxide], the MIC in assay [1] and in assay [3] was 1.2 µM (≈ 0.497 µg/mL) each time. In addition, the pIC50 in assay [2] (Homo sapiens, HepG2, 96 h) is 4.03.
As to `COC(=O)NC[C@H]1CC(c2cc(F)c(C3(F)CCS(=O)(=O)CC3)c(F)c2)=NO1` [Example 2, Methyl N-[[(5R)-3-[3,5-difluoro-4-(4-fluoro-1,1-dioxo-thian-4-yl)phenyl]-4,5-dihydroisoxazol-5-yl]methyl]carbamate], the MIC in assay [1] and in assay [3] was 1.6 µM (≈ 0.673 µg/mL) throughout. Besides, the pIC50 in assay [2] (Homo sapiens, HepG2, 96 h) is less than 4.00.
As to `CN1CC(C)(S(=O)(=O)c2ccc(-c3ccc(C4=NO[C@@H](Cn5ccnn5)C4)cc3F)cc2)C1` [Example 3, (5R)-3-[4-[4-(1,3-Dimethylazetidin-3-yl)sulfonylphenyl]-3-fluoro-phenyl]-5-(triazol-1-ylmethyl)-4,5-dihydroisoxazole], the MIC is 0.14 µM (≈ 0.0657 µg/mL) in assay [1] and 0.12 µM (≈ 0.0563 µg/mL) in assay [3]. In addition, the pIC50 in assay [2] (Homo sapiens, HepG2, 96 h) was 5.21.
With `COC(=O)NC[C@H]1CC(c2cc(F)c(N3CCS(=O)(=O)CC3)c(F)c2)=NO1` [Example 4, Methyl N-[[(5R)-3-[4-(1,1-dioxo-1,4-thiazinan-4-yl)-3,5-difluoro-phenyl]-4,5-dihydroisoxazol-5-yl]methyl]carbamate], the MIC in assay [1] and in assay [3] was 3.12 µM (≈ 1.26 µg/mL) each time. The pIC50 in assay [2] (Homo sapiens, HepG2, 96 h) was less than 4.00.
In the case of `O=S1(=O)CCN(c2c(F)cc(C3=NO[C@@H](Cn4ccnn4)C3)cc2F)CC1` [Example 5, 4-(2,6-Difluoro-4-{(5R)-5-[(1H-1,2,3-triazol-1-yl)methyl]-4,5-dihydro-1,2-oxazol-3-yl}phenyl)-1λ^6-thiomorpholine-1,1-dione], the MIC in assay [1] and in assay [3] was 3.12 µM (≈ 1.24 µg/mL) each time.
For `CN1CC(C)(S(=O)(=O)c2ccc(-c3ccc(C4=NO[C@@H](CNC(=O)OC5CC5)C4)cc3F)cc2)C1` [Example 17, Cyclopropyl N-[[(5R)-3-[4-[4-(1,3-dimethylazetidin-3-yl)sulfonylphenyl]-3-fluoro-phenyl]-4,5-dihydroisoxazol-5-yl]methyl]carbamate], the MIC in assay [1] and in assay [3] was 0.39 µM (≈ 0.196 µg/mL) throughout.
For the compound `CN=S1(=O)CCC(F)(c2c(F)cc(C3=NO[C@@H](CNC(C)=O)C3)cc2F)CC1` (stereo partly drawn) [Example 30, N-{[(5R)-3-{3,5-Difluoro-4-[4-fluoro-1-(methylimino)-1-oxo-1λ^6-thian-4-yl]phenyl}-4,5-dihydro-1,2-oxazol-5-yl]methyl}acetamide], the pIC50 in assay [2] was less than 4.00.
On the same count and under the same terms, the same measure for `N=S1(=O)CCC(F)(c2c(F)cc(C3=NO[C@@H](Cn4ccnn4)C3)cc2F)CC1` (stereo partly drawn) [Example 39, 4-(2,6-Difluoro-4-{(5R)-5-[(1H-1,2,3-triazol-1-yl)methyl]-4,5-dihydro-1,2-oxazol-3-yl}phenyl)-4-fluoro-1-imino-1λ^6-thian-1-one]: less than 4.00.

These data come from US20260035363A1, “COMPOUNDS AND METHODS OF USE THEREOF AS ANTIBACTERIAL AGENTS” (priority 2019, published 2026).
